Reference: PMC11898701, “Evaluating Therapeutic Efficacy of the Vascular Disrupting Agent OXi8007 Against Kidney Cancer in Mice” (Cancers, 2025)
Like-named read-outs stand apart in the source and are kept apart here. Marks after values point to notes of the source that are not given here.

How the values were obtained:
[1] = system: Renca-luc cells; assay: Renca-luc sulforhodamine B (SRB) assay, cell growth inhibition; assay type: cell-based; details: Mus musculus; Renca-luc cells, SRB, 48 h treatment; read-out: IC50
Description: (§1) In two independent trials of Renca and Renca-luc cells were plated in triplicate at 8000 cells/well into 96-well plates and incubated for 24 h at 37 °C in a humidified incubator with 5% CO2 followed by a 48 h treatment period at ten-fold dilutions of the drug.

[2] = system: Renca cells; assay: Renca sulforhodamine B (SRB) assay, cell growth inhibition; assay type: cell-based; details: Mus musculus; Renca cells, SRB, 48 h treatment; read-out: IC50
Description: as §1

[3] = Pharmacokinetic study in Renca-luc tumor-bearing BALB/c mice; assay type: in vivo, mouse; details: after OXi8007 250 mg/kg IP; for half-life / Cmax / Tmax: male, BALB/c, mouse, in vivo, ip, 250 mg/kg; for Cmax: read-out: Cmax; for Tmax: read-out: Tmax (converted)
Description: Plasma and tissues were harvested at various time points (20 min to 16 h) from Renca-luc tumor-bearing BALB/c male mice following the administration of OXi8007 IP. Mice treated with 250 mg/kg were sacrificed at 20 min (n = 3), 1 h (n = 4), 2 h (n = 4), 4 h (n = 4), 8 h (n = 4), and 16 h (n = 4). Mice were anesthetized, exsanguinated, the tissues were blotted, and then they were weighed and frozen in liquid nitrogen. Homogenized plasma and tissue samples were extracted with acetonitrile with a bead mill; internal standard (CA4 or tri-labeled ^13C-OXi8006) was added to each sample to reach a final concentration of 10 ppb. Samples were centrifuged twice to remove precipitated proteins (16,260× g for 10 min at 4 °C). Clear supernatant was transferred into MS vials, and formic acid was added to a final concentration of 0.1% for LC-MS analysis. […] Mobile phase A consisted of 0.1% v/v formic acid in water, and mobile phase B was acetonitrile, which was mixed by the binary pump with an elution gradient at a flow rate of 0.6 mL/min. Data were analyzed using Xcalibur 4.6 software based on exact masses, and Phoenix WinNonlin 8.5.0 software was used to determine the pharmacokinetic parameters based on a non-compartmental model.

[4] = Blood pressure assessment (CODA system); assay type: in vivo, mouse
Description: Blood pressure was measured using a CODA system (Kent Scientific, Torrington, CT, USA) on 5 adult male BALB/c mice. Mice were anesthetized with 2% isoflurane in oxygen at 1 dm^3/min and placed on the CODA IR heating pad with a feedback rectal temperature probe and nosecone to maintain anesthesia. An occlusion cuff and VPR cuff were placed on the tail. The baseline measurement was recorded over 30 min, then OXi8007 (250 mg/kg or 325 mg/kg) was administered IP and the blood pressure measurement resumed for 45 min. As positive and negative controls, hydralazine (1 mg/kg) or saline, respectively, were injected IP.

`COc1ccc(/C=C\c2cc(OC)c(OC)c(OC)c2)cc1O` [CA4, combretastatin A-4, reference compound] showed an IC50 [1] of 109 ± 23 nM and an IC50 [2] of 48 ± 2 nM.

In the case of `COc1ccc2c(C(=O)c3cc(OC)c(OC)c(OC)c3)c(-c3ccc(OC)c(O)c3)[nH]c2c1` [OXi8006], the AUC ([3]; brain) is reported as 0.54 ng·h/mg, the AUC ([3]; heart) is reported as 9.04 ng·h/mg and the AUC ([3]; left kidney) is reported as 8.72 ng·h/mg. The AUC ([3]; liver) was 18.19 ng·h/mg, the AUC ([3]; lungs) was 9.45 ng·h/mg and the half-life ([3]; brain) was 1.71 h. For the same molecule, the Cmax ([3]; brain) was 220 ng/g, the Tmax ([3]; brain) was 0.333 h and the half-life ([3]; heart) was 2.02 h. For the same molecule, the Cmax ([3]; heart) was 5310 ng/g, the Tmax ([3]; heart) was 0.333 h and the half-life ([3]; left kidney) was 1.73 h. For the same molecule, the Cmax ([3]; left kidney) was 5860 ng/g, the Tmax ([3]; left kidney) was 0.333 h and the half-life ([3]; liver) was 2.25 h. For the same molecule, the Cmax ([3]; liver) was 9160 ng/g, the Tmax ([3]; liver) was 0.333 h and the half-life ([3]; lungs) was 2.56 h. It also gave a Cmax ([3]; lungs) of 4180 ng/g, a Tmax ([3]; lungs) of 0.333 h and a half-life ([3]; plasma) of 1.98 h. It also gave a half-life ([3]; plasma, Renca-luc tumor-bearing BALB/c mice) of 1.99 h, a Cmax ([3]; plasma) of 29000 ng/mL and a Tmax ([3]; plasma) of 0.333 h. For the same molecule, the half-life ([3]; spleen) was 1.72 h, the Cmax ([3]; spleen) was 4450 ng/g and the Tmax ([3]; spleen) was 0.333 h. The half-life ([3]; tumor and right kidney) was 4.23 h, the Cmax ([3]; tumor and right kidney) was 2390 ng/g and the Tmax ([3]; tumor and right kidney) was 1 h. For the same molecule, the AUC ([3]; plasma, zero to last quantifiable concentration) was 47 ^# h × ng/µL, the AUC ([3]; spleen) was 9.88 ng·h/mg and the AUC ([3]; tumor and right kidney) was 10.24 ng·h/mg.

In the case of `NNc1nncc2ccccc12` [hydralazine, reference compound], the “Hypotension (Δ BP)” value ([4]; 1 mg/kg) is reported as ~ 35 mmHg, the “Drop in diastolic blood pressure (Δ)” value ([4]; 1 mg/kg IP) is reported as 31 mmHg and the “Drop in mean blood pressure (Δ)” value ([4]; 1 mg/kg IP) is reported as 34 mmHg. For the same molecule, the “Drop in systolic blood pressure (Δ)” value ([4]; 1 mg/kg IP) was 40 mmHg and the “Drop in blood pressure” value ([4]; 1 mg/kg IP, positive control) was “about 30%”.
